Values joined by “and” are separate entries in the source; they are usually repeats but may differ in a detail not shown here. Identical values can stand only once. Like-named read-outs stand apart in the source and are kept apart here. Non-standard residues stand in square brackets, D forms with d. Residues, ends and D or L forms follow the SMILES beside them. Nle = CCCC[C@H](N)C(=O)O
Tested on: SARS-CoV-2 delta variant
Type: cell-based
Settings: Huh 7.5, replicates

SMILES | virus titer of delta variant, Fig 6B data (single drug 0.01 μM) | virus titer of delta variant, Fig 6B data (single drug 0.1 μM) | virus titer of delta variant, Fig 6B data (single drug 1 μM)
CCCC[C@@H](C=O)NC(=O)[C@H](CC(C)C)NC(=O)[C@H](CC(C)C)NC(C)=O [MG-101] (Ac-Leu-Leu-[Nle]-aldehyde) | 640000 and 800000 and 400000 | 400000 and 960000 and 800000 | 240000 (2×) and 160000
N[C@@H](CC(=O)N1CCn2c(nnc2C(F)(F)F)C1)Cc1cc(F)c(F)cc1F [Sitagliptin] | 960000 and 720000 and 480000 | 720000 and 400000 and 560000 | 560000 and 720000 and 64000
